Measured values published in PubChem BioAssay AID248 (DTP/NCI, 2004).
“And” between values parts separate entries of the source, which are not always exact repeats. Equal values may be shown once. Toxic doses and inconclusive results are not listed. Rule as the data show it: active = T/C of 150% or more; inactive = T/C below 125%.

System: L1210 leukemia ip in BDF1 mice, survival T/C
Experiment: NCI In Vivo Anticancer Drug Screen. Data for tumor model L1210 Leukemia (intraperitoneal) in B6D2F1 (BDF1) mice
Conditions: endpoint: mean survival time, higher = longer survival
Procedure, shortened: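 Transplantable tumor model; survival measured in treated vs vehicle control mice. Value = treated/control.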

[1] = dose: 100.0 mg/kg/injection, schedule: Q01DX009 (ip), vehicle: saline
[2] = dose: 200.0 mg/kg/injection, schedule: Q01DX009 (ip), vehicle: saline
[3] = dose: 400.0 mg/kg/injection, schedule: Q01DX009 (ip), vehicle: saline
[4] = dose: 100.0 mg/kg/injection, schedule: Q01DX009 (ip), vehicle: saline with Tween-80
[5] = dose: 100.0 mg/kg/injection, schedule: Q04DX003 (ip), vehicle: saline with Tween-80
[6] = dose: 200.0 mg/kg/injection, schedule: Q01DX009 (ip), vehicle: saline with Tween-80
[7] = dose: 200.0 mg/kg/injection, schedule: Q04DX003 (ip), vehicle: saline with Tween-80
[8] = dose: 400.0 mg/kg/injection, schedule: Q04DX003 (ip), vehicle: saline with Tween-80
[9] = dose: 100.0 mg/kg/injection, schedule: Q04DX002 (ip), vehicle: Klucel (hydroxypropylcellulose) (HPC)
[10] = dose: 400.0 mg/kg/injection, schedule: Q01DX009 (ip), vehicle: saline with Tween-80
[11] = dose: 50.0 mg/kg/injection, schedule: Q04DX003 (ip), vehicle: Klucel (hydroxypropylcellulose) (HPC)
[12] = dose: 100.0 mg/kg/injection, schedule: Q04DX003 (ip), vehicle: Klucel (hydroxypropylcellulose) (HPC)
[13] = dose: 200.0 mg/kg/injection, schedule: Q04DX003 (ip), vehicle: Klucel (hydroxypropylcellulose) (HPC)
[14] = dose: 25.0 mg/kg/injection, schedule: Q01DX009 (ip), vehicle: saline with Tween-80
[15] = dose: 100.0 mg/kg/injection, schedule: Q01DX001 (ip), vehicle: carboxymethylcellulose (CMC)
[16] = dose: 200.0 mg/kg/injection, schedule: Q01DX001 (ip), vehicle: carboxymethylcellulose (CMC)
[17] = dose: 400.0 mg/kg/injection, schedule: Q01DX001 (ip), vehicle: carboxymethylcellulose (CMC)
[18] = dose: 200.0 mg/kg/injection, schedule: Q04DX002 (ip), vehicle: Klucel (hydroxypropylcellulose) (HPC)
[19] = dose: 400.0 mg/kg/injection, schedule: Q04DX002 (ip), vehicle: Klucel (hydroxypropylcellulose) (HPC)
[20] = dose: 400.0 mg/kg/injection, schedule: Q04DX003 (ip), vehicle: Klucel (hydroxypropylcellulose) (HPC)

Measured: T/C

CC(O)CN1CC(C)N(CC(C)O)CC1C (stereo unspecified)
inactive: [1] 104 % of control | dose: 100.0 mg/kg/injection, schedule: Q04DX003 (ip), vehicle: saline 100 % of control | [2] 102 % of control | dose: 200.0 mg/kg/injection, schedule: Q04DX003 (ip), vehicle: saline 86 % of control | [3] 98 % of control | dose: 400.0 mg/kg/injection, schedule: Q04DX003 (ip), vehicle: saline 88 % of control

CC(=N\O)/C(=N\O)C(=O)c1ccccc1
inactive: [4] 110 % of control | [5] 96 % of control | [6] 95 % of control | [7] 101 % of control | [8] 98 % of control

CCOC(=O)/C(C#N)=C/c1cccn1Cc1cc2c(cc1[N+](=O)[O-])OCO2
inactive: dose: 25.0 mg/kg/injection, schedule: Q04DX002 (ip), vehicle: Klucel (hydroxypropylcellulose) (HPC) 104 % of control | dose: 50.0 mg/kg/injection, schedule: Q04DX002 (ip), vehicle: Klucel (hydroxypropylcellulose) (HPC) 100 % of control | [9] 100 % of control

O=C(CN1CCOCC1)Nc1cccc(C(F)(F)F)c1
inactive: [4] 96 % of control | [5] 101 % of control | [6] 104 % of control | [7] 111 % of control | [10] 109 % of control | [8] 97 % of control

O=C(Nc1ccccc1)Oc1cccc2cccnc12
inactive: [11] 100 % of control | [12] 105 % of control | [13] 97 % of control

O=c1oc(Cl)cc2oc(=O)n(-c3ccccc3)c(=O)c12
inactive: dose: 6.25 mg/kg/injection, schedule: Q01DX009 (ip), vehicle: saline with Tween-80 106 % of control | dose: 12.5 mg/kg/injection, schedule: Q01DX009 (ip), vehicle: saline with Tween-80 98 % of control | [14] 93 % of control and 109 % of control | dose: 25.0 mg/kg/injection, schedule: Q04DX002 (ip), vehicle: saline with Tween-80 98 % of control | dose: 50.0 mg/kg/injection, schedule: Q04DX002 (ip), vehicle: saline with Tween-80 102 % of control | dose: 100.0 mg/kg/injection, schedule: Q04DX002 (ip), vehicle: saline with Tween-80 96 % of control and 98 % of control

CN=NNc1nc[nH]c1C(=O)OC
inactive: dose: 50.0 mg/kg/injection, schedule: Q01DX001 (ip), vehicle: carboxymethylcellulose (CMC) 118 % of control | [15] 118 % of control | [16] 118 % of control | [17] 113 % of control

CC(=O)Nc1ccccc1N
inactive: [1] 117 % of control | [9] 92 % of control | [2] 113 % of control | [18] 113 % of control | dose: 265.0 mg/kg/injection, schedule: Q01DX009 (ip), vehicle: saline 114 % of control | [19] 103 % of control

CC(Oc1cc(Cl)c(Cl)cc1Cl)C(=O)OCCCc1ccccn1 (stereo unspecified)
inactive: dose: 50.0 mg/kg/injection, schedule: Q01DX009 (ip), vehicle: Klucel (hydroxypropylcellulose) (HPC) 106 % of control | dose: 100.0 mg/kg/injection, schedule: Q01DX009 (ip), vehicle: Klucel (hydroxypropylcellulose) (HPC) 100 % of control and 111 % of control | [9] 103 % of control | dose: 200.0 mg/kg/injection, schedule: Q01DX009 (ip), vehicle: Klucel (hydroxypropylcellulose) (HPC) 114 % of control | [18] 107 % of control | [19] 90 % of control

c1ccc(-c2c[nH]c(-c3ccccc3)c2)cc1
inactive: [12] 124 % of control | dose: 200.0 mg/kg/injection, schedule: Q01DX001 (ip), vehicle: steriod suspending solution 103 % of control | [13] 100 % of control | dose: 400.0 mg/kg/injection, schedule: Q01DX001 (ip), vehicle: steriod suspending solution 103 % of control | [20] 94 % of control

O=c1oc2c(CN3CCOCC3)c(O)ccc2c2c1CCCC2
inactive: [15] 86 % of control | [16] 96 % of control | [17] 91 % of control

CCP(CC)c1cccc(OC(=O)NC)c1
inactive: dose: 5.0 mg/kg/injection, schedule: Q01DX001 (ip), vehicle: saline 110 % of control | dose: 10.0 mg/kg/injection, schedule: Q01DX001 (ip), vehicle: saline 104 % of control | dose: 20.0 mg/kg/injection, schedule: Q01DX001 (ip), vehicle: saline 107 % of control

CCOc1ccc2cc(S(=O)(=O)O)ccc2c1N
inactive: [1] 93 % of control | [12] 97 % of control | [2] 95 % of control | [13] 98 % of control | [3] 87 % of control | [20] 101 % of control

CC(C)=CCC/C(C)=C/CNC(=O)/C=C/C(=O)O
inactive: [14] 98 % of control | dose: 50.0 mg/kg/injection, schedule: Q01DX009 (ip), vehicle: saline with Tween-80 93 % of control | dose: 50.0 mg/kg/injection, schedule: Q04DX003 (ip), vehicle: saline with Tween-80 91 % of control | [4] 100 % of control and 90 % of control | [5] 94 % of control and 98 % of control | [6] 105 % of control | [7] 86 % of control | [10] 94 % of control | [8] 97 % of control

CCN(CC)C(=O)c1c(Cl)n(C)c2ccccc12
inactive: dose: 12.5 mg/kg/injection, schedule: Q04DX003 (ip), vehicle: Klucel (hydroxypropylcellulose) (HPC) 95 % of control | dose: 25.0 mg/kg/injection, schedule: Q04DX003 (ip), vehicle: Klucel (hydroxypropylcellulose) (HPC) 104 % of control | [11] 104 % of control

CCCN(CCC)C(=O)CCN1CC1
inactive: dose: 5.0 mg/kg/injection, schedule: Q01DX001 (ip), vehicle: carboxymethylcellulose (CMC) 97 % of control | dose: 10.0 mg/kg/injection, schedule: Q01DX001 (ip), vehicle: carboxymethylcellulose (CMC) 100 % of control | dose: 20.0 mg/kg/injection, schedule: Q01DX001 (ip), vehicle: carboxymethylcellulose (CMC) 88 % of control | dose: 40.0 mg/kg/injection, schedule: Q01DX001 (ip), vehicle: carboxymethylcellulose (CMC) 103 % of control

CC(C)(C)C(=O)OCN1CCOCC1
inactive: dose: 75.0 mg/kg/injection, schedule: Q01DX001 (ip), vehicle: saline 106 % of control | dose: 150.0 mg/kg/injection, schedule: Q01DX001 (ip), vehicle: saline 103 % of control | dose: 300.0 mg/kg/injection, schedule: Q01DX001 (ip), vehicle: saline 108 % of control

CS(=O)(=O)n1c(CBr)nc2ccccc21
inactive: dose: 100.0 mg/kg/injection, schedule: Q04DX003 (ip), vehicle: saline sonified 103 % of control | dose: 200.0 mg/kg/injection, schedule: Q04DX003 (ip), vehicle: saline sonified 88 % of control
